# Earlier results as cited in US6437103B1, “Fatty acid analogs for diagnosis of coronary artery disease” (Biostream Inc., priority 1999, dated 2002).
# System: myocardium
# Settings: background statement citing Goodman et al. 1984; Liefhold and Eisenhut 1986
structure (smiles),measurement,value
O=C(O)CCCCCCCCCCCCCCc1ccc(I)cc1 [15-(p-iodophenyl)pentadecanoic acid],myocardial uptake,moderate
